System: ICR male mice
Assay: In vivo tetrabenazine-induced hypothermia assay
Details: for activity discovered through in vivo tetrabenazine-induced hypothermia test: antidepressant-like activity in mice; for temperature recovery of TBZ-induced hypothermic response: oral gavage 60 min before TBZ 85 mg/kg i.p., 120 min after TBZ challenge
Text: The around 70% of PDC-1421 in Example 1 are composed of sucroester (34%), saponin (18%) and xanthone (17%). Some active compounds of in the powder product of Example 1, including polygalatenosides A/B/C (2nd fraction 1), ploygalaxanthone III, sibiricoses A5, and 7-O-methylmangiferin are also discovered through in vivo tetrabenazine-induced hypothermia test (one of rodent models for evaluating antidepressant-like activity in mice). Imipramine (as the positive control), PDC-1421, 1st Fraction 10-19, 1st Fraction 33, 2nd Fraction-1 (wherein the major components are polygalatenosides A/B/C), 2nd Fraction-3, TMCA, Polygalaxanthone III, Onjisaponin B, Sibiricose A5, 7-O-Methylmangiferin and Sibiricaxanthone B are dissolved in water for injection (WFI) and administered by oral gavage. The dosing volume is 10 mL/kg. Test substances and vehicle (WFI) are administered by oral gavage to groups of 8 ICR male mice weighing 23±3 g for 60 minutes, and then tetrabenazine (TBZ, 85 mg/kg) is injected intraperitoneally. Body temperature is recorded before (0 min), and 60, 90 and 120 min after TBZ challenge. Therefore, drug-induced hypothermia (e.g., TBZ and reserpine) animal model is a typical experiment to evaluate the activity of NRI on depression. Temperature recovery of TBZ-induced hypothermic response is considered as indication of a anti-depressant activity.

Structure (SMILES)	activity discovered through in vivo tetrabenazine-induced hypothermia test	temperature recovery of TBZ-induced hypothermic response
COc1cc2c(=O)c3c(O)c([C@@H]4O[C@H](CO)[C@@H](O)[C@H](O)[C@H]4O)c(O)cc3oc2cc1O [7-O-Methylmangiferin]	active	had a temperature recovery
COc1cc(/C=C/C(=O)O[C@H]2[C@H](O)[C@@H](CO)O[C@@]2(CO)O[C@H]2O[C@H](CO)[C@@H](O)[C@H](O)[C@H]2O)ccc1O [Sibiricoses A5, Sibiricose A5]	active	had a temperature recovery
COc1cc2c(=O)c3c(O)c([C@@H]4O[C@H](CO[C@@H]5OC[C@](O)(CO)[C@H]5O)[C@@H](O)[C@H](O)[C@H]4O)c(O)cc3oc2cc1O [Polygalaxanthone III]	active	had a temperature recovery
